Measured values published in patent publication US10314308B2, “Microbiocidal benzoxaboroles” (SYNGENTA PARTICIPATIONS AG, priority 2015, dated 2019).

Key:
[1] = tested on: Glomerella Lagenarium(Colletotrichum Ladenarium); assay: Glomerella lagenarium (Colletotrichum lagenarium) / liquid culture (anthracnose); assay type: cell-based; conditions: PDB potato dextrose broth, 24° C., 3-4 days after application, read-out: disease control (inhibition of growth, photometrically)
Procedure, shortened: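 Compound dissolved in DMSO was combined with potato dextrose broth carrying conidia taken directly from cryogenic storage. Photometric growth inhibition readings were taken after 3–4 days of incubation at 24 °C.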

Sclerotinia Sclerotiorum = assay: Sclerotinia sclerotiorum / liquid culture (cottony rot); assay type: cell-based; conditions: PDB potato dextrose broth, 24° C., 3-4 days after application, read-out: disease control (inhibition of growth, visually)
Procedure, shortened: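 Growth inhibition was read by eye 3-4 days post-application at 24° C. Compounds (DMSO solution) were combined with potato dextrose broth seeded with mycelia fragments from a newly grown liquid culture.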

Pythium Ultimum = assay: Pythium ultimum / liquid culture (seedling damping off); assay type: cell-based; conditions: Globisporangium ultimum, potato dextrose broth, 24° C., 2-3 days after application, read-out: disease control (inhibition of growth, photometrically)
Phytophthora Infestans = assay: whole plant or invertebrate; assay type: in vivo; conditions: in Solanum lycopersicum, foliar, read-out: disease control
[2] = tested on: Phaeosphaeria Nodorum (Septoria Nodorum); assay: Phaeosphaeria nodorum (Septoria nodorum) / wheat / leaf disc preventative (glume blotch); assay type: in vivo; conditions: Parastagonospora nodorum, foliar, wheat leaf segments cv Kanzler, inoculated 2 days after application, assessed 5-7 days after application, read-out: disease control
Procedure, shortened: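 Wheat cv Kanzler leaf discs on agar were sprayed with formulated compound, then inoculated with spores 2 days later. Incubation at 20° C, 75% RH, 12/12 h light/dark; percent disease control versus untreated assessed 5-7 days after application.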

Gaeumannomyces Graminis = assay: Gaeumannomyces graminis / liquid culture (take-all of cereals); assay type: cell-based; conditions: PDB potato dextrose broth, 24° C., 4-5 days after application, read-out: disease control (inhibition of growth, photometrically)
Procedure, shortened: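 Liquid-culture growth assay: compound delivered as DMSO solution, then fungal inoculum in potato dextrose broth added. Photometric read of growth inhibition after 4-5 days at 24° C.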

[3] = tested on: Mycosphaerella Graminicola(Septoria Tritici); assay: Mycosphaerella graminicola (Septoria tritici) / liquid culture (Septoria blotch); assay type: cell-based; conditions: Zymoseptoria tritici, PDB potato dextrose broth, 24° C., 4-5 days after application, read-out: disease control (inhibition of growth, photometrically)
Procedure, shortened: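 Growth inhibition measured by photometry 4-5 days post-application, at 24 °C, in liquid culture of spores taken straight from cryogenic storage into potato dextrose broth, with test compound supplied in DMSO.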

[4] = tested on: Mycosphaerella Arachidis(Cercospora Arachidicola); assay: Mycosphaerella arachidis (Cercospora arachidicola) / liquid culture (early leaf spot); assay type: cell-based; conditions: PDB potato dextrose broth, 24° C., 4-5 days after application, read-out: disease control (inhibition of growth, photometrically)
Procedure, shortened: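 Growth inhibition was read photometrically 4-5 days post-application, following incubation at 24 °C. Test compounds in DMSO were combined with fungal spores from cryogenic storage suspended in potato dextrose broth.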

[5] = tested on: Monographella Nivalis(Microdochium Nivale); assay: Monographella nivalis (Microdochium nivale) / liquid culture (foot rot cereals); assay type: cell-based; conditions: PDB potato dextrose broth, 24° C., 4-5 days after application, read-out: disease control (inhibition of growth, photometrically)
Procedure, shortened: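 Growth inhibition measured photometrically after 4-5 days at 24° C. Test compound in DMSO was combined with nutrient broth (PDB) carrying conidia taken directly from cryogenic storage.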

[6] = tested on: Thanatephorus Cucumeris(Rhizoctonia Solani); assay: Thanatephorus cucumeris (Rhizoctonia solani) / liquid culture (foot rot, damping-off); assay type: cell-based; conditions: PDB potato dextrose broth, 24° C., 3-4 days after application, read-out: disease control (inhibition of growth, photometrically)
Procedure, shortened: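 Photometric growth-inhibition read 3-4 days after treatment at 24° C. Compounds applied from DMSO at 200 ppm, then fungal mycelium fragments in PDB broth added.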

Fusarium Culmorum = assay: microbe, parasite or virus in culture; assay type: cell-based; conditions: read-out: disease control (inhibition of growth, photometrically)
[7] = tested on: Botryotinia Fuckeliana(Botrytis Cinerea); assay: Botryotinia fuckeliana (Botrytis cinerea) / liquid culture (gray mould); assay type: cell-based; conditions: Vogels broth, 24° C., 3-4 days after application, read-out: disease control (inhibition of growth, photometrically)
Procedure: 9 Botryotinia Fuckeliana(Botrytis Cinerea)/Liquid Culture (Gray Mould) Conidia of the fungus from cryogenic storage were directly mixed into nutrient broth (Vogels broth). After placing a DMSO solution of test compound into a 96-well microtiter plate, the nutrient broth containing the fungal spores was added. The test plates were incubated at 24° C. and the inhibition of growth was determined photometrically 3-4 days after application.

[8] = tested on: Puccinia Recondita f. sp. Tritici; assay: Puccinia recondita f. sp. tritici / wheat / leaf disc preventative (brown rust); assay type: in vivo; conditions: foliar, wheat leaf segments cv Kanzler, inoculated 1 day after application, assessed 7-9 days after application, read-out: disease control
Procedure: 3 Puccinia Recondita f. sp. Tritici/Wheat/Leaf Disc Preventative (Brown Rust) Wheat leaf segments cultivated variety (cv) Kanzler were placed on agar in 24-well plates and sprayed with formulated test compound diluted in water. The leaf disks were inoculated with a spore suspension of the fungus 1 day after application. The inoculated leaf segments were incubated at 19° C. and 75% relative humidity under a light regime of 12/12 h (light/dark) in a climate cabinet and the activity of a compound was assessed as percent disease control compared to untreated when an appropriate level of disease damage appears in untreated check leaf segments (7-9 days after application).

Plasmopara Viticola = assay: whole plant or invertebrate; assay type: in vivo; conditions: foliar, read-out: disease control

## OB1OCc2cc(Cl)c(-c3nnco3)cc21 [Compound 94]
[1]
  inhibition at 20 ppm: ≥ 80%
other
  melting point: 202 to 204 °C
Sclerotinia Sclerotiorum
  inhibition at 20 ppm: ≥ 80%
Pythium Ultimum
  inhibition at 20 ppm: ≥ 80%
Phytophthora Infestans
  pest or weed control at 200 ppm: ≥ 80%
[2]
  pest or weed control at 200 ppm: ≥ 80%
Gaeumannomyces Graminis
  inhibition at 20 ppm: ≥ 80%
[3]
  inhibition at 20 ppm: ≥ 80%
[4]
  inhibition at 20 ppm: ≥ 80%

## OB1OCc2cc(F)c(-c3ncon3)cc21 [Compound 97]
[1]
  inhibition at 20 ppm: ≥ 80%
[5]
  inhibition at 20 ppm: ≥ 80%
other
  melting point: 226 to 228 °C
Sclerotinia Sclerotiorum
  inhibition at 20 ppm: ≥ 80%
Pythium Ultimum
  inhibition at 20 ppm: ≥ 80%
Phytophthora Infestans
  pest or weed control at 200 ppm: ≥ 80%
[2]
  pest or weed control at 200 ppm: ≥ 80%
[6]
  inhibition at 20 ppm: ≥ 80%
Gaeumannomyces Graminis
  inhibition at 20 ppm: ≥ 80%
[3]
  inhibition at 20 ppm: ≥ 80%
Fusarium Culmorum
  inhibition at 20 ppm: ≥ 80%
[7]
  inhibition at 20 ppm: ≥ 80%
[4]
  inhibition at 20 ppm: ≥ 80%

## OB1OCc2cc(F)c(-c3ncno3)cc21 [Compound 29]
[1]
  inhibition at 20 ppm: ≥ 80%
[5]
  inhibition at 20 ppm: ≥ 80%
other
  melting point: 204 to 206 °C
Sclerotinia Sclerotiorum
  inhibition at 20 ppm: ≥ 80%
Pythium Ultimum
  inhibition at 20 ppm: ≥ 80%
Phytophthora Infestans
  pest or weed control at 200 ppm: ≥ 80%
[2]
  pest or weed control at 200 ppm: ≥ 80%
[6]
  inhibition at 20 ppm: ≥ 80%
Gaeumannomyces Graminis
  inhibition at 20 ppm: ≥ 80%
[3]
  inhibition at 20 ppm: ≥ 80%
Fusarium Culmorum
  inhibition at 20 ppm: ≥ 80%
[7]
  inhibition at 20 ppm: ≥ 80%
[4]
  inhibition at 20 ppm: ≥ 80%

## OB1OCc2cc(F)c(-c3cnoc3)cc21 [Compound 11]
[5]
  inhibition at 20 ppm: ≥ 80%
other
  melting point: 230 to 232 °C
Sclerotinia Sclerotiorum
  inhibition at 20 ppm: ≥ 80%
Pythium Ultimum
  inhibition at 20 ppm: ≥ 80%
Phytophthora Infestans
  pest or weed control at 200 ppm: ≥ 80%
[2]
  pest or weed control at 200 ppm: ≥ 80%
Gaeumannomyces Graminis
  inhibition at 20 ppm: ≥ 80%
[3]
  inhibition at 20 ppm: ≥ 80%
Fusarium Culmorum
  inhibition at 20 ppm: ≥ 80%
[4]
  inhibition at 20 ppm: ≥ 80%

## Cc1cc(-c2cc3c(cc2F)COB3O)c(C#N)o1 [Compound 56]
[8]
  pest or weed control at 200 ppm: ≥ 80%
[5]
  inhibition at 20 ppm: ≥ 80%
Pythium Ultimum
  inhibition at 20 ppm: ≥ 80%
Phytophthora Infestans
  pest or weed control at 200 ppm: ≥ 80%
Plasmopara Viticola
  pest or weed control at 200 ppm: ≥ 80%
[6]
  inhibition at 20 ppm: ≥ 80%
Gaeumannomyces Graminis
  inhibition at 20 ppm: ≥ 80%
[4]
  inhibition at 20 ppm: ≥ 80%
